We go through one compound from patent publication US20130243867A1, “MICELLE COMPOSITIONS AND METHODS FOR THEIR USE” (University of South Florida (A Florida Non-Profit …, priority 2012, published 2013).

SMILES strings stand for the structures.

The subject of one data set is HEK293 cells. To be noted: cells incubated with free DOX, literature; cited from earlier work.
A short description of data set [1]: In vitro DOX release study (dialysis). The conditions noted are these: 96 hours, either pH. Format: physicochemical. As to the method:
An in vitro DOX release study was also performed wherein D-LMNs, M-LMNs, and free DOX were each dispersed in 1 ml PBS buffer containing 1% Tween 20 (pH 7.3 or pH 5.1) and placed in a dialysis membrane (MWCO of 12000-14000 Da), The bag was then immersed in a tube containing 10 mL of the same PBS buffer ([…] or pH 5.1) and incubated at 37° C. At specific time intervals the DOX content in the PBS was analyzed using the UV-VIS spectrophotometer at 485 nm. Samples were all done in triplicate. M-LMNs were used as a blank. The release of the encapsulated DOX from D-LMNs was determined at pH 7.3, which is the physiological pH, and at pH 5.1, which represents the acidic pH inside endosomes, lysosomes, and solid tumors. One percent Tween 20 was used because it forms hydrophobic pockets, which can stabilize the released DOX from the D-LMNs, and helps to avoid aggregation of the hydrophobic DOX in the aqueous environment.

On to `COc1cccc2c1C(=O)c1c(O)c3c(c(O)c1C2=O)C[C@@](O)(C(=O)CO)C[C@@H]3O[C@H]1C[C@H](N)[C@H](O)[C@H](C)O1.Cl` [free DOX, doxorubicin hydrochloride], for which, in the data set with HEK293 cells, the “location of DOX in cells” value is “found in the nuclei intercalated with DNA”. In data set [1], the DOX released result is given as “more than 90%”.
